tested on: estrogen responsive element/promoter/luciferase reporter gene; test: ERE Luciferase Assay in T47D-KBluc cells; type: cell-based, human; details: Homo sapiens, 24 hours, luciferase activity, read-out: Target Engagement IC50
Procedure, shortened: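 T47D cells stably carrying an ERE-luciferase reporter, in RPMI with 10% FBS, treated 24 h with PROTACs over a 12-point 3-fold series (300 nM top final, 2 pM lowest). Luciferase measured after lysis; IC50 from duplicate wells in two independent experiments.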

| IC50 [nM] | SMILES |
| --- | --- |
| 17.5 | COc1cc(N2CCN(CC3CCN(c4c(F)cc([C@H]5c6ccc(O)cc6CC[C@H]5c5ccccc5)cc4F)CC3)CC2)cc2c1C(=O)N(C1CCC(=O)NC1=O)C2 (stereo partly drawn) [compound 18, 3-(5-{4-[(1-{2,6-difluoro-4-[(1S,2R)-6-hydroxy-2-phenyl-1,2,3,4-tetrahydronaphthalen-1-yl]phenyl}piperidin-4-yl)methyl]piperazin-1-yl}-7-methoxy-1-oxo-2,3-dihydro-1H-isoindol-2-yl)piperidine-2,6-dione] |

target: T1, Estrogen Receptor-Alpha (ERα) (Homo sapiens, UniProt P03372); test: Estrogen Receptor-Alpha (ERα) degradation assay in MCF-7 cells (western blot / In-Cell Western); type: cell-based; details: MCF7, read-out: ER Dmax
T1 construct: endogenous in cells; host or cells: MCF-7 (MCF7) cells
T1 sequence (P03372 1-595): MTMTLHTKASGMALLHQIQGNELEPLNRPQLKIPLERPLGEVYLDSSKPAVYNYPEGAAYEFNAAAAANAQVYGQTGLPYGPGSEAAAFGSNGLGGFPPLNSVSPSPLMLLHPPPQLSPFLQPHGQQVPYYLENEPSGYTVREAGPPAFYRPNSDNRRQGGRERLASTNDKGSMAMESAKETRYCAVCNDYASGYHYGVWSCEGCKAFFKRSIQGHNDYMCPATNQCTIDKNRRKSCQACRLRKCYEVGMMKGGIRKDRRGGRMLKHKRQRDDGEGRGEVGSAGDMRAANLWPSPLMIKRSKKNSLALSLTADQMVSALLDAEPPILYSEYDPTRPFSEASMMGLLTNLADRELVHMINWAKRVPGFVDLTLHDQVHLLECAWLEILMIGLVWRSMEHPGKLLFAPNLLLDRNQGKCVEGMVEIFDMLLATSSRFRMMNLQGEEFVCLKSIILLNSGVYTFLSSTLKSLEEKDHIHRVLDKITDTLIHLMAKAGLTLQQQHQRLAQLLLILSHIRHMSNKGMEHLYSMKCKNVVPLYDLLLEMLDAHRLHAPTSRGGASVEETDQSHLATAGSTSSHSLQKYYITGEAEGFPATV

| Dmax [%] | SMILES |
| --- | --- |
| 50 to 75 | COc1cc(N2CCN(CC3CCN(c4c(F)cc([C@H]5c6ccc(O)cc6CC[C@H]5c5ccccc5)cc4F)CC3)CC2)cc2c1C(=O)N(C1CCC(=O)NC1=O)C2 (stereo partly drawn) [compound 18, 3-(5-{4-[(1-{2,6-difluoro-4-[(1S,2R)-6-hydroxy-2-phenyl-1,2,3,4-tetrahydronaphthalen-1-yl]phenyl}piperidin-4-yl)methyl]piperazin-1-yl}-7-methoxy-1-oxo-2,3-dihydro-1H-isoindol-2-yl)piperidine-2,6-dione] |

same assay, conditions: read-out: ER DC50

| DC50 [nM] | SMILES |
| --- | --- |
| 1 to 10 | COc1cc(N2CCN(CC3CCN(c4c(F)cc([C@H]5c6ccc(O)cc6CC[C@H]5c5ccccc5)cc4F)CC3)CC2)cc2c1C(=O)N(C1CCC(=O)NC1=O)C2 (stereo partly drawn) [compound 18, 3-(5-{4-[(1-{2,6-difluoro-4-[(1S,2R)-6-hydroxy-2-phenyl-1,2,3,4-tetrahydronaphthalen-1-yl]phenyl}piperidin-4-yl)methyl]piperazin-1-yl}-7-methoxy-1-oxo-2,3-dihydro-1H-isoindol-2-yl)piperidine-2,6-dione] |

tested on: androgen receptor (AR); test: AR ELISA assay in LNCaP and/or VCaP cells; type: cell-based; details: 5 hours
Description: 4. AR ELISA Assay Protocol for Table 6
Compounds were evaluated in this assay in LNCaP and/or VCaP cells utilizing similar protocols. The protocols used with VCaP cells are described below. The androgen receptor ELISA assay was performed using PathScani AR Sandwich ELISA (Cell Signaling Catalog #12850) according to the following assay steps:
VCaP cells were seeded at 40,000 cells/well at a volume of 100 μL/well in VCaP assay medium [Phenol red free RPMI (Gibco Cat #11835-030); 5% Charcoal Stripped (Dextran treated) FBS (Omega Scientific, Cat #FB-04); 1% penstrep (Life Technologies, Gibco Cat #: 10378-016)] in Corning 3904 plates. The cells were incubated for a minimum of 3 days. Cells were dosed with PROTACs diluted in 0.01% DMSO and the drug treatment was allowed for 5 hours.
AR ELISA (Cell Signaling) was performed as follows: 1× Cell Signaling Cell lysis buffer was made (Catalogue #9803; comes with the kit). Media from the treated wells is aspirated, and 100 μL 1× cell lysis buffer/well is added. The cells were placed on a shaker for 10 minutes at 4° C. Twenty microliters of lysate was transferred to 100 μl of Diluent in ELISA plate (0.15 μg/ml-0.075 μg/ml). The lysate-diluent mixture was shaken for 30 minutes at 37° C. Allow mouse AR antibody, anti-mouse antibody, TMB, and STOP solution to come to room temperature. The 1× ELISA buffer included in kit was made and loaded in the reservoir. Media from the plates was discarded, the ELISA plate tapped hard on paper towel, and washed 4×200 μl ELISA wash buffer using a plate washer.
One-hundred (100) μL/well of mouse AR detection Ab was added; the plates were covered and shaken at 37° C. for 1 hour; media was discarded from the plates, the plates were tapped on a paper towel, washed 4× with 200 μL ELISA wash buffer with a plate washer.
One-hundred (100) μL/well of anti-mouse—HRP conjugated Ab (comes with the kit) was added; the plates were covered and shaken at 37° C. for 30 minutes; the TMB reagent was allowed to come to room temperature; the media was discard from the plate, the plates were tapped on paper towl, washed 4× with 200 μL of ELISA wash buffer; the plates were tapped the plates on paper towl. One-hundred (100) μL of TMB was added and the plates shaken for 2 minutes—while watching for color development. One-hundred (100) μL Stop solution was added when light blue color developed. Plates were shaken and read at 450 nm.
Progression of prostate cancer in patients treated with anti-androgen therapy usually involves one of several mechanisms of enhanced Androgen Receptor (AR) signaling, including increased intratumoral androgen synthesis, increased AR expression and AR mutations. PROTACs (PROteolysis TArgeting Chimera), which use bi-functional molecules that simultaneously bind a target of choice and an E3 ligase, cause ubiquitination via induced proximity and degradation of the targeted, pathological protein. As opposed to traditional target inhibition, which is a competitive process, degradation is a progressive process. As such, it is less susceptible to increases in endogenous ligand, target expression, or mutations in the target. Thus, this technology appears to be ideal for addressing the mechanisms of AR resistance in patients with prostate cancer. Data was analyzed and plotted using GraphPad Prism software.

| SMILES | DC50 [nM] | AR Dmax |
| --- | --- | --- |
| CC(C)N(CC1CCN(c2cnc(C(=O)N[C@H]3C(C)(C)[C@H](Oc4ccc(C#N)c(Cl)c4)C3(C)C)cn2)CC1)[C@H]1C[C@H](Oc2ccc3c(c2)C(=O)N(C2CCC(=O)NC2=O)C32CC2)C1 (mixture of isomers) [compound 37, rac-N-((1r,3r)-3-(3-chloro-4-cyanophenoxy)-2,2,4,4-tetramethylcyclobutyl)-5-(4-((((1r,3r)-3-((2′-(2,6-dioxopiperidin-3-yl)-3′-oxospiro[cyclopropane-1,1′-isoindolin]-5′-yl)oxy)cyclobutyl)(isopropyl)amino)methyl)piperidin-1-yl)pyrazine-2-carboxamide] |  | C (C < 50) |
| CC(C)N(CC1CCN(c2cnc(C(=O)N[C@H]3CC[C@H](Oc4ccc(C#N)c(Cl)c4)CC3)cn2)CC1)[C@H]1C[C@H](Oc2ccc3c(c2)C(=O)N(C2CCC(=O)NC2=O)C32CC2)C1 (mixture of isomers) [compound 35, rac-N-((1r,4r)-4-(3-chloro-4-cyanophenoxy)cyclohexyl)-5-(4-((((1r,3r)-3-((2′-(2,6-dioxopiperidin-3-yl)-3′-oxospiro[cyclopropane-1,1′-isoindolin]-5′-yl)oxy)cyclobutyl)(isopropyl)amino)methyl)piperidin-1-yl)pyrazine-2-carboxamide] |  | C (C < 50) |
| CC1(C)[C@H](NC(=O)c2ccc(N3CCC(CN4CCN(c5ccc6c(c5)C5(CC5)N(C5CCC(=O)NC5=O)C6=O)CC4)CC3)cc2)C(C)(C)[C@H]1Oc1ccc(C#N)c(Cl)c1 (mixture of isomers) [compound 34, rac-N-((1r,3r)-3-(3-chloro-4-cyanophenoxy)-2,2,4,4-tetramethylcyclobutyl)-4-(4-((4-(2′-(2,6-dioxopiperidin-3-yl)-3′-oxospiro[cyclopropane-1,1′-isoindolin]-6′-yl)piperazin-1-yl)methyl)piperidin-1-yl)benzamide] |  | C (C < 50) |

Further lines, with some results ahead:

| DC50 [nM] | SMILES | AR Dmax |
| --- | --- | --- |
| < 1 | CC1(C)[C@H](NC(=O)c2ccc(N3CCC(CN4CCN(c5ccn6c(=O)n(C7CCC(=O)NC7=O)nc6c5)CC4)CC3)cc2)C(C)(C)[C@H]1Oc1ccc(C#N)c(Cl)c1 (mixture of isomers) [compound 50, N-((1r,3r)-3-(3-chloro-4-cyanophenoxy)-2,2,4,4-tetramethylcyclobutyl)-4-(4-((4-(2-(2,6-dioxopiperidin-3-yl)-3-oxo-2,3-dihydro-[1,2,4]triazolo[4,3-a]pyridin-7-yl)piperazin-1-yl)methyl)piperidin-1-yl)benzamide] | A (A >= 75) |
| 1 to 10 | CC1(C)[C@H](NC(=O)c2ccc(N3CCN(CCCCCOc4ccc5c(c4)CC(=O)N(C4CCC(=O)NC4=O)C5=O)CC3)nc2)C(C)(C)[C@H]1Oc1ccc(C#N)c(Cl)c1 (mixture of isomers) [compound 47, N-((1r,3r)-3-(3-chloro-4-cyanophenoxy)-2,2,4,4-tetramethylcyclobutyl)-6-(4-(5-((2-(2,6-dioxopiperidin-3-yl)-1,3-dioxo-1,2,3,4-tetrahydroisoquinolin-6-yl)oxy)pentyl)piperazin-1-yl)nicotinamide] | B (50 <= B < 75) |
| < 1 | CC1(C)[C@H](NC(=O)c2ccc(N3CCC(CCN4CCN(c5cc6c(cn5)C(=O)N(C5CCC(=O)NC5=O)C6=O)CC4)CC3)cc2)C(C)(C)[C@H]1Oc1ccc(C#N)c(Cl)c1 (mixture of isomers) [compound 51, rac-N-((1r,3r)-3-(3-chloro-4-cyanophenoxy)-2,2,4,4-tetramethylcyclobutyl)-4-(4-(2-(4-(2-(2,6-dioxopiperidin-3-yl)-1,3-dioxo-2,3-dihydro-1H-pyrrolo[3,4-c]pyridin-6-yl)piperazin-1-yl)ethyl)piperidin-1-yl)benzamide] | A (A >= 75) |
| < 1 | COc1cc(N2CCN(CC3CCN(c4ncc(C(=O)N[C@H]5C(C)(C)[C@H](Oc6ccc(C#N)c(Cl)c6)C5(C)C)cn4)CC3)CC2)cc2c1C(=O)N(C1CCC(=O)NC1=O)C2=O (mixture of isomers) [compound 33, rac-N-((1r,3r)-3-(3-chloro-4-cyanophenoxy)-2,2,4,4-tetramethylcyclobutyl)-2-(4-((4-(2-(2,6-dioxopiperidin-3-yl)-7-methoxy-1,3-dioxoisoindolin-5-yl)piperazin-1-yl)methyl)piperidin-1-yl)pyrimidine-5-carboxamide] |  |
| < 1 | CC1(C)[C@H](NC(=O)c2ccc(N3CCN(CCCCCOc4ccc5nn(C6CCC(=O)NC6=O)c(=O)n5c4)CC3)nc2)C(C)(C)[C@H]1Oc1ccc(C#N)c(Cl)c1 (mixture of isomers) [compound 49, N-((1r,3r)-3-(3-chloro-4-cyanophenoxy)-2,2,4,4-tetramethylcyclobutyl)-6-(4-(5-((2-(2,6-dioxopiperidin-3-yl)-3-oxo-2,3-dihydro-[1,2,4]triazolo[4,3-a]pyridin-6-yl)oxy)pentyl)piperazin-1-yl)nicotinamide] | A (A >= 75) |
| < 1 | CC1(C)[C@H](NC(=O)c2ccc(N3CCN(CCCCCOc4ccc5c(c4)CCN(C4CCC(=O)NC4=O)C5=O)CC3)nc2)C(C)(C)[C@H]1Oc1ccc(C#N)c(Cl)c1 (mixture of isomers) [compound 46, N-((1r,3r)-3-(3-chloro-4-cyanophenoxy)-2,2,4,4-tetramethylcyclobutyl)-6-(4-(5-(2-(2,6-dioxopiperidin-3-yl)-1-oxo-1,2,3,4-tetrahydroisoquinolin-6-yloxy)pentyl)piperazin-1-yl)nicotinamide] | A (A >= 75) |
| < 1 | CC1(C)[C@H](NC(=O)c2ccc(N3CCC(CCN4CCN(c5ncc6c(n5)C(=O)N(C5CCC(=O)NC5=O)C6=O)CC4)CC3)cc2)C(C)(C)[C@H]1Oc1ccc(C#N)c(Cl)c1 (mixture of isomers) [compound 52, (rac)-N-((1r,3r)-3-(3-chloro-4-cyanophenoxy)-2,2,4,4-tetramethylcyclobutyl)-4-(4-(2-(4-(6-(2,6-dioxopiperidin-3-yl)-5,7-dioxo-6,7-dihydro-5H-pyrrolo[3,4-d]pyrimidin-2-yl)piperazin-1-yl)ethyl)piperidin-1-yl)benzamide] | B (50 <= B < 75) |

— patent US12239711B2, “Cereblon ligands and bifunctional compounds comprising the same” (Arvinas Operations, Inc., priority 2014, dated 2025)
